Test results: US20260137692A1, “METHODS AND COMPOSITIONS FOR TREATING AND MANAGING ALZHEIMER'S DISEASE” (PHARMATROPHIX, INC., priority 2024, published 2026)

System: patients with mild to moderate Alzheimer's Disease
Assay: Phase IIa trial: ADAS-Cog
Type: in vivo, human
Details: ITT
Procedure: Exploratory outcome evaluations involved the assessment of cognitive and clinical function (Table 4). […] Items from the Neurological Testing Battery (NTB), together with the ADAS-Cog 13, Spatial Navigation Test (AMUNET) were performed at Baseline, Week 12 and Week 26 (Visits 2, 4 and 5). While the MMSE was used primarily as a screening and baseline disease staging tool, its repeated administration at Week 26 provided an additional exploratory cognitive outcome measure. The Geriatric Depression Scale (GDS) was assessed at each Visit (Screening, Baseline, Week 4, 12, 26: Visits 1-5) and the Clinical Global Impression test (CGI) with Severity was assessed at Screening (Visit 1) and then the Improvement was subsequently assessed at Weeks 12 and 26 (Visits 4 and 5). For each test, whether categorical or numeric, all raw scores were considered interval in nature. The change from Screening (Week −8) or Baseline (Week 0) was therefore be derived for each patient. Actual values at each Visit and Changes from Screening/Baseline were summarized.
Alzheimer's Disease Assessment Scale-13 items (total score=85) is used as a parameter for exploratory outcome analysis. ADAS-cog is a psychometric instrument designed to evaluate the severity of cognitive and non-cognitive behavioral dysfunctions characteristic of people with AD. The cognitive portion assesses memory, language and praxis functions. Most items are rated on a scale of 0 to 5, where 0 indicates no impairment and 1 to 5 indicates very mild (1), mild (2), moderate (3), moderately severe (4) or severe impairment (5) respectively. Other items are rated on the presence or absence of a characteristic number of errors or severity of errors. The total scores from the ADAS-cog sub-scales range from 0 (no impairment) to 85 (errors in all sub-tests).
A positive (i.e., increasing) change of the score indicates cognitive worsening.
ADAS-Cog was assessed at Visits 2, 4 and 5, as well as at the early discontinuation Visit, if applicable.

## CC[C@H](C)[C@H](N)C(=O)NCCN1CCOCC1 [LM11A-31-BHS, Tris[(2S,3S)-2-amino-3-methyl-N-(2-morpholinoethyl)pentanamide]tetra(monohydrogensulfate), monosulfate]
200 mg group, 26-week treatment period, not statistically significant
  progression compared to placebo in the LS mean ADAS-cog-13 score, increased by: 7.1%
200 mg group, 26 weeks
  ADAS-cog-6 score progression compared to placebo, increased by: 7.1%
  progression compared to placebo of the LS mean ADAS-cog-11 score, decreased by: 9.8%
400 mg group, 26-week treatment period, not statistically significant
  progression compared to placebo in the LS mean ADAS-cog-13 score, decreased by: 35.3%
400 mg group, 26 weeks
  ADAS-cog-6 score progression compared to placebo, decreased by: 31.4%
  progression compared to placebo of the LS mean ADAS-cog-11 score, decreased by: 42.7%
